Key:
[1] = system: human epidermal keratinocyte cells; assay: Scratch assay (cell migration / gap closure) using human epidermal keratinocyte cells; format: cell-based; details: 0.001% sample
Description: The cell regeneration function or properties of the naringin:zinc complex were evaluated via a scratch assay using human epidermal keratinocyte cells obtained from Thermal Fisher Scientific of Gaithersburg, Md. Particularly, monolayers of keratinocyte cells were gown to full confluency in separate wells, and each well was scratched with a 1000 μl tip to create a cell-free gap. Each of the wells with the cell-free gap was then washed with 1 mL of PBS twice to remove any dead floating cells. […] Distance measurements of the gap were taken every 24 hours until the gaps fully closed.
It should be appreciated that a relatively higher value of the percentage of gap closure indicates a relatively greater repair or regeneration function.

IL-1a = IL-1a assay using HaCaT cells stressed with 0.01% SDS (ELISA of cell supernatants); format: cell-based; details: 0.001% sample, 24 h pretreatment, 0.01% SDS stress 15 min, sample added again, normalized by cell viability
Description: The anti-inflammatory properties of the naringin:zinc complex was evaluated by conducting an IL-la assay using HaCaT cells. To evaluate the anti-inflammatory properties, HaCaT cells were grown into 80% confluency and pretreated for 24 hours with 1 mL of each of the following samples: (1) a culture media (control); (2) 0.001% naringin:zinc complex; and (3) 0.001% naringin alone.
After pretreating the HaCaT cells, the cells were stressed with 0.01% SDS for 15 minutes before adding another 1 mL of each of the samples (1)-(3). Each of the HaCaT cells were used to prepare cell supernatants, which were used for IL-la assays with IL-la ELISA kits.

C[C@@H]1O[C@@H](O[C@H]2[C@H](Oc3cc(O)c4c(c3)O[C@H](c3ccc(O)cc3)CC4=O)O[C@H](CO)[C@@H](O)[C@@H]2O)[C@H](O)[C@H](O)[C@H]1O [Naringin, naringin]
Cell Migration of Keratinocytes (% Active); percentage of gap closure versus the starting gap distance [1]: 58% | IL-1a level (IL-1a): 6.6 pg/mL

Reference: patent publication US11116708B2, “Personal care compositions including naringin:zinc complexes and methods for the same” (Colgate-Palmolive Company, priority 2017, dated 2021)
